Laboratory results: publication PMC5218480 (PLoS ONE, 2017)

Tested on: MV-4-11 cells
Assay: Gene expression microarray analysis (Affymetrix PrimeView) and GSEA
Type: cell-based, human
Set-up: RFU PODN (11730768_x_at) / Fold change /veh PODN (11730768_x_at) / RFU LINC00158 (11744669_a_at) / Fold change /veh LINC00158 (11744669_a_at) / RFU DUSP10 (11751237_a_at) / Fold change /veh DUSP10 (11751237_a_at) / RFU ID3 (11757404_x_at) / Fold change /veh ID3 (11757404_x_at) / RFU PLEKHG5 (11737974_s_at) / Fold change /veh PLEKHG5 (11737974_s_at) / RFU LRRC4B (11730491_at) / Fold change /veh LRRC4B (11730491_at) / RFU GIMAP4 (11747438_a_at) / Fold change /veh GIMAP4 (11747438_a_at) / RFU KRT8 (11758183_x_at) / Fold change /veh KRT8 (11758183_x_at) / RFU CNN1 (11734310_a_at) / Fold change /veh CNN1 (11734310_a_at) / RFU VPS37D (11726825_at) / Fold change /veh VPS37D (11726825_at) / RFU C10orf10 (11716522_x_at) / Fold change /veh C10orf10 (11716522_x_at) / RFU KIR2DL2 /// KIR2DL4 /// KIR2DL5A /// KIR2DL5B /// KIR2DS1 /// KIR2DS2 /// KIR2DS3 /// KIR2DS4 /// KIR3DL3 /// KIR3DL3 /// KIR3DS1 (11738374_at) / Fold change /veh KIR2DL2 /// KIR2DL4 /// KIR2DL5A /// KIR2DL5B /// KIR2DS1 /// KIR2DS2 /// KIR2DS3 /// KIR2DS4 /// KIR3DL3 /// KIR3DL3 /// KIR3DS1 (11738374_at) / RFU C1QL1 (11718748_at) / Fold change /veh C1QL1 (11718748_at) / RFU TMPRSS4 (11747572_a_at) / Fold change /veh TMPRSS4 (11747572_a_at) / RFU HAMP (11756126_x_at) / Fold change /veh HAMP (11756126_x_at) / RFU RNFT2 (11725882_a_at) / Fold change /veh RNFT2 (11725882_a_at) / RFU NR4A2 (11747474_a_at) / Fold change /veh NR4A2 (11747474_a_at) / RFU ABCC12 (11746883_a_at) / Fold change /veh ABCC12 (11746883_a_at) / RFU TMEM136 (11760407_x_at) / Fold change /veh TMEM136 (11760407_x_at) / RFU CLDN22 /// WWC2 (11732394_at) / Fold change /veh CLDN22 /// WWC2 (11732394_at) / RFU HLA-DPB1 (11760878_x_at) / Fold change /veh HLA-DPB1 (11760878_x_at) / RFU SPINT1 (11716480_a_at) / Fold change /veh SPINT1 (11716480_a_at) / RFU GAP43 (11754022_s_at) / Fold change /veh GAP43 (11754022_s_at) / RFU A4GNT (11735810_at) / Fold change /veh A4GNT (11735810_at) / RFU PRB3 (11715151_x_at) / Fold change /veh PRB3 (11715151_x_at) / RFU TUBB4B (11761932_at) / Fold change /veh TUBB4B (11761932_at) / RFU CAPN14 (11732068_a_at) / Fold change /veh CAPN14 (11732068_a_at) / RFU TMCC2 (11721928_a_at) / Fold change /veh TMCC2 (11721928_a_at) / RFU IRGQ (11745062_a_at) / Fold change /veh IRGQ (11745062_a_at) / RFU FAM174B (11720279_a_at) / Fold change /veh FAM174B (11720279_a_at) / RFU TMPRSS4 (11748680_a_at) / Fold change /veh TMPRSS4 (11748680_a_at) / RFU FAM212B (11763350_a_at) / Fold change /veh FAM212B (11763350_a_at) / RFU PLEKHG5 (11743358_a_at) / Fold change /veh PLEKHG5 (11743358_a_at) / RFU ZSCAN30 (11745921_a_at) / Fold change /veh ZSCAN30 (11745921_a_at) / RFU CMKLR1 (11741424_a_at) / Fold change /veh CMKLR1 (11741424_a_at) / RFU LOC101060620 /// MAPK8IP1 (11723275_at) / Fold change /veh LOC101060620 /// MAPK8IP1 (11723275_at) / RFU SPTSSB (11747773_x_at) / Fold change /veh SPTSSB (11747773_x_at) / RFU PRSS12 (11739890_at) / Fold change /veh PRSS12 (11739890_at) / RFU BIN1 (11741810_x_at) / Fold change /veh BIN1 (11741810_x_at) / RFU WNT11 (11732464_a_at) / Fold change /veh WNT11 (11732464_a_at) / RFU C10orf10 (11716521_a_at) / Fold change /veh C10orf10 (11716521_a_at) / RFU C5orf56 (11738089_at) / Fold change /veh C5orf56 (11738089_at) / RFU CYB561 (11721691_x_at) / Fold change /veh CYB561 (11721691_x_at) / RFU ANKRD19P (11752326_a_at) / Fold change /veh ANKRD19P (11752326_a_at) / RFU OR2T12 /// OR2T33 /// OR2T8 (11738714_s_at) / Fold change /veh OR2T12 /// OR2T33 /// OR2T8 (11738714_s_at) / RFU VCAN (11748164_a_at) / Fold change /veh VCAN (11748164_a_at) / RFU JSRP1 (11732532_at) / Fold change /veh JSRP1 (11732532_at) / RFU KRTAP10-11 (11738290_x_at) / Fold change /veh KRTAP10-11 (11738290_x_at) / RFU MYO3A (11730013_a_at) / Fold change /veh MYO3A (11730013_a_at) / RFU EBF3 (11725865_a_at) / Fold change /veh EBF3 (11725865_a_at) / RFU CAMK2N1 (11719241_x_at) / Fold change /veh CAMK2N1 (11719241_x_at) / RFU C5orf56 (11738088_a_at) / Fold change /veh C5orf56 (11738088_a_at) / RFU OLFML3 (11715873_a_at) / Fold change /veh OLFML3 (11715873_a_at) / RFU LOC100653217 /// NTM (11731650_a_at) / Fold change /veh LOC100653217 /// NTM (11731650_a_at) / RFU MAPK11 (11762145_a_at) / Fold change /veh MAPK11 (11762145_a_at) / RFU FIZ1 (11724087_x_at) / Fold change /veh FIZ1 (11724087_x_at) / RFU OASL (11726364_x_at) / Fold change /veh OASL (11726364_x_at) / RFU SOX15 (11748057_x_at) / Fold change /veh SOX15 (11748057_x_at) / RFU CD79A (11719716_a_at) / Fold change /veh CD79A (11719716_a_at) / RFU HIST1H1D (11736915_at) / Fold change /veh HIST1H1D (11736915_at) / RFU CASKIN2 (11723855_a_at) / Fold change /veh CASKIN2 (11723855_a_at) / RFU LOC730098 (11760151_x_at) / Fold change /veh LOC730098 (11760151_x_at) / RFU OR4N2 (11742367_at) / Fold change /veh OR4N2 (11742367_at) / RFU PRRT2 (11749266_a_at) / Fold change /veh PRRT2 (11749266_a_at) / RFU SNX32 (11753110_a_at) / Fold change /veh SNX32 (11753110_a_at) / RFU CDHR5 (11726645_a_at) / Fold change /veh CDHR5 (11726645_a_at) / RFU RCAN1 (11760418_a_at) / Fold change /veh RCAN1 (11760418_a_at) / RFU FAM167A (11723789_a_at) / Fold change /veh FAM167A (11723789_a_at) / RFU FAM26E (11764081_at) / Fold change /veh FAM26E (11764081_at) / RFU ISYNA1 (11749810_s_at) / Fold change /veh ISYNA1 (11749810_s_at) / RFU ACY1 (11761880_at) / Fold change /veh ACY1 (11761880_at) / RFU 11764098_at / Fold change /veh 11764098_at / RFU SAMD14 (11745864_x_at) / Fold change /veh SAMD14 (11745864_x_at) / RFU NPB (11741838_a_at) / Fold change /veh NPB (11741838_a_at) / RFU TMPRSS6 (11731388_a_at) / Fold change /veh TMPRSS6 (11731388_a_at) / RFU KRTAP10-2 (11738614_at) / Fold change /veh KRTAP10-2 (11738614_at) / RFU ARHGAP8 /// PRR5-ARHGAP8 (11727945_x_at) / Fold change /veh ARHGAP8 /// PRR5-ARHGAP8 (11727945_x_at) / RFU KRTAP5-7 /// NADSYN1 (11734609_at) / Fold change /veh KRTAP5-7 /// NADSYN1 (11734609_at) / RFU RASL12 (11751679_a_at) / Fold change /veh RASL12 (11751679_a_at) / RFU CDKN2B (11736163_a_at) / Fold change /veh CDKN2B (11736163_a_at) / RFU PRF1 (11729649_at) / Fold change /veh PRF1 (11729649_at) / RFU, ZNF638 /// ZNF638-IT1 / Fold change vs veh, ZNF638 /// ZNF638-IT1 / RFU, PANK3 / Fold change vs veh, PANK3 / RFU, SH3YL1 / Fold change vs veh, SH3YL1 / RFU, ZEB2 / Fold change vs veh, ZEB2 / RFU, NRIP1 / Fold change vs veh, NRIP1 / RFU, PTTG1IP / Fold change vs veh, PTTG1IP / RFU, CAPN2 / Fold change vs veh, CAPN2 / RFU, MED14 / Fold change vs veh, MED14 / RFU, SNORA58 / Fold change vs veh, SNORA58 / RFU, C1orf63 / Fold change vs veh, C1orf63 / RFU, LRRFIP1 / Fold change vs veh, LRRFIP1 / RFU, NDUFAF7 / Fold change vs veh, NDUFAF7 / RFU, SLC12A2 / Fold change vs veh, SLC12A2 / RFU, IBTK / Fold change vs veh, IBTK / RFU, ESF1 / Fold change vs veh, ESF1 / Fold change vs veh, TMEM50B / RFU, TAOK1 / Fold change vs veh, TAOK1 / RFU, ACBD3 / Fold change vs veh, ACBD3 / RFU, TMA16 / Fold change vs veh, TMA16 / RFU, RWDD3 / Fold change vs veh, RWDD3 / RFU, BCAT1 / Fold change vs veh, BCAT1 / RFU, EDEM3 / Fold change vs veh, EDEM3 / RFU, TMEM33 / Fold change vs veh, TMEM33 / RFU, WDR75 / Fold change vs veh, WDR75 / RFU, AHCTF1 / Fold change vs veh, AHCTF1 / RFU, TFRC / Fold change vs veh, TFRC / RFU, ZDHHC17 / Fold change vs veh, ZDHHC17 / RFU, NOM1 / Fold change vs veh, NOM1 / RFU, ARL8B / Fold change vs veh, ARL8B / RFU, ZBTB11 / Fold change vs veh, ZBTB11 / RFU, TAMM41 / Fold change vs veh, TAMM41 / RFU, KIAA1704 /// LOC100996395 / Fold change vs veh, KIAA1704 /// LOC100996395 / RFU, ING1 / Fold change vs veh, ING1 / RFU, TRMT61B / Fold change vs veh, TRMT61B / RFU, FUBP3 / Fold change vs veh, FUBP3 / RFU, TP53 / Fold change vs veh, TP53 / RFU, TNKS2 / Fold change vs veh, TNKS2 / RFU, ZFP14 / Fold change vs veh, ZFP14 / RFU, ACTR2 / Fold change vs veh, ACTR2 / RFU, PPP3R1 / Fold change vs veh, PPP3R1 / RFU, PIK3R1 / Fold change vs veh, PIK3R1 / RFU, HNRNPA1 / Fold change vs veh, HNRNPA1 / RFU, RNF170 / Fold change vs veh, RNF170 / RFU, ZNF28 / Fold change vs veh, ZNF28 / RFU, RNGTT / Fold change vs veh, RNGTT / RFU, OGT / Fold change vs veh, OGT / RFU, BRD1 / Fold change vs veh, BRD1 / RFU, MARS / Fold change vs veh, MARS / RFU, ZNF655 / Fold change vs veh, ZNF655 / RFU, FAHD1 / Fold change vs veh, FAHD1 / RFU, BDP1 / Fold change vs veh, BDP1 / RFU, LRRCC1 / Fold change vs veh, LRRCC1 / RFU, ARID1A / Fold change vs veh, ARID1A / RFU, ZNF146 / Fold change vs veh, ZNF146 / RFU, ZNF330 / Fold change vs veh, ZNF330 / RFU, GPN3 / Fold change vs veh, GPN3 / RFU, C9orf123 / Fold change vs veh, C9orf123 / RFU, N4BP2L2 / Fold change vs veh, N4BP2L2 / RFU, ARFIP1 / Fold change vs veh, ARFIP1 / RFU, FAM179B / Fold change vs veh, FAM179B / RFU, BCL10 / Fold change vs veh, BCL10 / RFU, UHRF1BP1L / Fold change vs veh, UHRF1BP1L / RFU, BET1 / Fold change vs veh, BET1 / RFU, CNOT2 / Fold change vs veh, CNOT2 / RFU, ZNF268 / Fold change vs veh, ZNF268 / Fold change vs veh, ZNF507 / RFU, DGCR2 / Fold change vs veh, DGCR2 / RFU, WDSUB1 / Fold change vs veh, WDSUB1 / Fold change vs veh, HSP90B1 /// MIR3652 / RFU, ADSS / Fold change vs veh, ADSS / RFU, GK / Fold change vs veh, GK / RFU, ZNF148 / Fold change vs veh, ZNF148 / RFU, TAF9 / Fold change vs veh, TAF9 / RFU, SLC1A5 / Fold change vs veh, SLC1A5 / RFU, SLMO2 / Fold change vs veh, SLMO2 / RFU, ABCC4 / Fold change vs veh, ABCC4 / RFU, LOC101060439 /// RAP1B / Fold change vs veh, LOC101060439 /// RAP1B / RFU, RFX7 / Fold change vs veh, RFX7 / RFU, GTPBP10 / Fold change vs veh, GTPBP10 / RFU, CNEP1R1 / Fold change vs veh, CNEP1R1 / RFU, BIVM-ERCC5 /// ERCC5 / Fold change vs veh, BIVM-ERCC5 /// ERCC5 / RFU, ILF3 / Fold change vs veh, ILF3 / RFU 11762660_at / Fold change /veh 11762660_at / RFU VCAN (11757783_s_at) / Fold change /veh VCAN (11757783_s_at) / RFU DDX43 (11728927_at) / Fold change /veh DDX43 (11728927_at) / RFU KRT8 (11758188_x_at) / Fold change /veh KRT8 (11758188_x_at) / RFU NKD1 (11759106_at) / Fold change /veh NKD1 (11759106_at) / RFU SRD5A1 (11742802_a_at) / Fold change /veh SRD5A1 (11742802_a_at) / RFU TPSAB1 /// TPSB2 (11721975_s_at) / Fold change /veh TPSAB1 /// TPSB2 (11721975_s_at) / RFU GSTM3 (11746129_a_at) / Fold change /veh GSTM3 (11746129_a_at) / RFU IL23R (11737362_x_at) / Fold change /veh IL23R (11737362_x_at) / RFU TMEM51 (11727254_a_at) / Fold change /veh TMEM51 (11727254_a_at) / RFU PIWIL2 (11732686_x_at) / Fold change /veh PIWIL2 (11732686_x_at) / RFU ORM1 (11744905_x_at) / Fold change /veh ORM1 (11744905_x_at) / RFU CCDC152 (11743942_at) / Fold change /veh CCDC152 (11743942_at) / RFU ECM1 (11717891_a_at) / Fold change /veh ECM1 (11717891_a_at) / RFU IL23R (11748794_a_at) / Fold change /veh IL23R (11748794_a_at) / RFU TNFAIP8L3 (11732012_x_at) / Fold change /veh TNFAIP8L3 (11732012_x_at) / RFU MBOAT4 (11741988_at) / Fold change /veh MBOAT4 (11741988_at) / RFU 11764193_at / Fold change /veh 11764193_at / RFU TMEM53 (11763286_at) / Fold change /veh TMEM53 (11763286_at) / RFU MAGEB2 (11727129_at) / Fold change /veh MAGEB2 (11727129_at) / RFU TMEM200A (11744735_a_at) / Fold change /veh TMEM200A (11744735_a_at) / RFU CCDC152 (11751479_a_at) / Fold change /veh CCDC152 (11751479_a_at) / RFU FAM211A (11726209_a_at) / Fold change /veh FAM211A (11726209_a_at) / RFU RGS16 (11746705_a_at) / Fold change /veh RGS16 (11746705_a_at) / RFU VCAN (11755009_s_at) / Fold change /veh VCAN (11755009_s_at) / RFU RHOB (11743442_s_at) / Fold change /veh RHOB (11743442_s_at) / RFU RGS16 (11720943_a_at) / Fold change /veh RGS16 (11720943_a_at) / RFU RGS16 (11720944_at) / Fold change /veh RGS16 (11720944_at) / RFU, VPS4B / Fold change vs veh, VPS4B / RFU, CREB1 / Fold change vs veh, CREB1 / RFU, DNAJC13 / Fold change vs veh, DNAJC13 / RFU, GNAQ / Fold change vs veh, GNAQ / RFU, CDK5R1 / Fold change vs veh, CDK5R1 / RFU, ZRANB3 / Fold change vs veh, ZRANB3 / RFU, CUL4A / Fold change vs veh, CUL4A / RFU, CCNY / Fold change vs veh, CCNY / RFU, UFL1 / Fold change vs veh, UFL1 / RFU, COG3 / Fold change vs veh, COG3 / RFU, DIAPH2 / Fold change vs veh, DIAPH2 / RFU, SKA2 / Fold change vs veh, SKA2 / RFU, AFF3 / Fold change vs veh, AFF3 / RFU, LMF1 / Fold change vs veh, LMF1 / RFU, IPO11 / Fold change vs veh, IPO11 / RFU, DFFB / Fold change vs veh, DFFB / RFU, FOXP1 / Fold change vs veh, FOXP1 / RFU, CARD8 / Fold change vs veh, CARD8 / RFU, STRN3 / Fold change vs veh, STRN3 / RFU, ADK / Fold change vs veh, ADK / RFU, RASSF2 / Fold change vs veh, RASSF2 / RFU, WIPF1 / Fold change vs veh, WIPF1 / RFU, LARP1B / Fold change vs veh, LARP1B / RFU, RASA1 / Fold change vs veh, RASA1 / RFU, RB1 / Fold change vs veh, RB1 / RFU, PPFIA1 / Fold change vs veh, PPFIA1 / RFU, MAT2A / Fold change vs veh, MAT2A / RFU, CCT5 / Fold change vs veh, CCT5 / RFU, WDR92 / Fold change vs veh, WDR92 / RFU, CUX1 / Fold change vs veh, CUX1 / RFU, TTC7A / Fold change vs veh, TTC7A / RFU, TMEM135 / Fold change vs veh, TMEM135 / RFU, DEPTOR / Fold change vs veh, DEPTOR / RFU, CPM / Fold change vs veh, CPM / RFU, DNAJB6 / Fold change vs veh, DNAJB6 / RFU, CACNA2D3 / Fold change vs veh, CACNA2D3 / RFU, DTX4 / Fold change vs veh, DTX4 / RFU, TFCP2 / Fold change vs veh, TFCP2 / RFU, GMCL1 /// GMCL1P1 / Fold change vs veh, GMCL1 /// GMCL1P1 / RFU, AEBP2 / Fold change vs veh, AEBP2 / RFU, SNHG1 /// SNORD22 /// SNORD25 /// SNORD26 /// SNORD27 /// SNORD28 /// SNORD29 /// SNORD31 / Fold change vs veh, SNHG1 /// SNORD22 /// SNORD25 /// SNORD26 /// SNORD27 /// SNORD28 /// SNORD29 /// SNORD31 / Fold change (Aza/veh), C12orf56 (ProbeSet 11735607_a_at) / Fold change (ACY-1035/veh), C12orf56 (ProbeSet 11735607_a_at) / Fold change (Aza/veh), FGFR1OP (ProbeSet 11751329_s_at) / Fold change (ACY-1035/veh), FGFR1OP (ProbeSet 11751329_s_at) / Fold change (Aza/veh), VPS36 (ProbeSet 11739960_a_at) / Fold change (ACY-1035/veh), VPS36 (ProbeSet 11739960_a_at) / RFU SYPL1 (11715823_x_at) / Fold change /veh SYPL1 (11715823_x_at) / RFU IGFBP7 (11715501_s_at) / Fold change /veh IGFBP7 (11715501_s_at) / RFU REEP3 (11722064_at) / Fold change /veh REEP3 (11722064_at) / RFU IGLL1 (11728026_x_at) / Fold change /veh IGLL1 (11728026_x_at): dose or concentration left out as unconfirmed
Conditions: MV-4-11 cells, 48 hours

## Nc1ncn([C@@H]2O[C@H](CO)[C@@H](O)[C@H]2O)c(=O)n1 [azacitidine]
  Fold change /veh 11764098_at: 1.18
